Values quoted from earlier work in patent US8097743B2, “Process for manufacture of blocked mercaptosilane coupling agents” (Momentive Performance Materials Inc., priority 2002, dated 2012).

Settings: cited from earlier work

CCN(CC)CC [TEA, triethylamine]
Miscibility with water (classification) (below 18.7° C.): completely miscible

CCCN(CCC)CCC [TNPA, tri-n-propylamine]
Solubility in water (classification): very slightly soluble
